Experimental data reported in paper PMC11046380 (2024).

Assays:
[1] = tested on: BMAA_159_min (DNA, aptamer) GGCTCGGCCCTGGGTGAGGGGCGCAGTGGGGTGTAGCCAG; experiment: 1H NMR titration; conditions: 100 mM NaCl, 2 mM MgCl2; 20 mM sodium phosphate, 10% D2O, 298 K; qualitative
[2] = tested on: BMAA_165_min (DNA, aptamer) GGGCGTGTGTGGGAGGGGGCACTTCGTCGGGGTGAGCCAG; experiment: 1H NMR titration; conditions: 100 mM NaCl, 2 mM MgCl2; 20 mM sodium phosphate, 10% D2O, 298 K; qualitative
[3] = tested on: BMAA_159_min (DNA, aptamer) GGCTCGGCCCTGGGTGAGGGGCGCAGTGGGGTGTAGCCAG; experiment: circular dichroism; conditions: 100 mM NaCl (100 mM KCl in legend), 5 mM MgCl2; 20 mM Tris pH 7.6, room temperature; qualitative
[4] = tested on: BMAA_159 (DNA, aptamer) TGTACCGTCTGAGCGATTCGTACGGCTCGGCCCTGGGTGAGGGGCGCAGTGGGGTGTAGCCAGTCAGTGTTAAGGAGTGC; experiment: SYBR Green I fluorescence displacement; conditions: 100 mM NaCl, 5 mM MgCl2; 20 mM Tris pH 7.6, room temperature; SYBR Green I displaced; one-site fit
[5] = tested on: BMAA_165 (DNA, aptamer) TGTACCGTCTGAGCGATTCGTACGGGCGTGTGTGGGAGGGGGCACTTCGTCGGGGTGAGCCAGTCAGTGTTAAGGAGTGC; experiment: SYBR Green I fluorescence displacement; conditions: 100 mM NaCl, 5 mM MgCl2; 20 mM Tris pH 7.6, room temperature; SYBR Green I displaced; one-site fit
[6] = tested on: BMAA_165_scrambled (DNA, aptamer) TGTACCGTCTGAGCGATTCGTACAGTCGTTGGGGGGGGGGGTGAGCGTTGCGCGCGTAGCCAGTCAGTGTTAAGGAGTGC; experiment: SYBR Green I fluorescence displacement; conditions: 100 mM NaCl, 5 mM MgCl2; 20 mM Tris pH 7.6, room temperature; SYBR Green I displaced; up to 25 μM BMAA
[7] = tested on: BMAA_172 (DNA, aptamer) TGTACCGTCTGAGCGATTCGTACGGGGGCCAGTGAATGAGTTGGGGTGGTAATGGGGAGCCAGTCAGTGTTAAGGAGTGC; experiment: SYBR Green I fluorescence displacement; conditions: 100 mM NaCl, 5 mM MgCl2, 20 mM Tris pH 7.6, room temperature, four of five candidates bind, not named
[8] = tested on: BMAA_38 (DNA, aptamer) TGTACCGTCTGAGCGATTCGTACGGGGGTTCACGCTCGAGGGGGCCACAGGGGGAGTAGCCAGTCAGTGTTAAGGAGTGC; experiment: SYBR Green I fluorescence displacement; conditions: 100 mM NaCl, 5 mM MgCl2, 20 mM Tris pH 7.6, room temperature, four of five candidates bind, not named
[9] = tested on: BMAA_165_min (biosensing) (DNA, aptamer) GGGCGTGTGTGGGAGGGGGCACTTCGTCGGGGTG; experiment: electrochemical aptamer sensor (SWV, EIS); conditions: 4 mM NaCl, 0.2 mM MgCl2
[10] = tested on: BMAA_159_min (FAM-labeled) (DNA, aptamer) GGCTCGGCCCTGGGTGAGGGGCGCAGTGGGGTGTAGCCAG; experiment: BMAA-conjugated plate fluorescence assay; conditions: 100 mM NaCl, 5 mM MgCl2, 20 mM Tris pH 7.6, room temperature, immobilised compound on streptavidin plate
[11] = tested on: BMAA_165_min (FAM-labeled) (DNA, aptamer) GGGCGTGTGTGGGAGGGGGCACTTCGTCGGGGTGAGCCAG; experiment: BMAA-conjugated plate fluorescence assay; conditions: 100 mM NaCl, 5 mM MgCl2, 20 mM Tris pH 7.6, room temperature, immobilised compound on streptavidin plate

SMILES | binding [1] | binding [2] | binding [3] | Kd [4] [nM] | Kd [5] [nM] | binding [6] | apparent Kd [7] | apparent Kd [8] | binding [9] | apparent Kd [10] [nM] | apparent Kd [11] [nM]
CNC[C@H](N)C(=O)O | yes | yes | yes | 2200 ± 100 | 320 ± 20 | no | 6.50 (5.23-9.56) uM | 18.6 (3.08-102) uM | yes | – | –
CNCC(NC(=O)CCOCCOCCOCCOCCNC(=O)CCCC[C@@H]1SC[C@@H]2NC(=O)N[C@@H]21)C(=O)O (some centres unmarked) | – | – | – | – | – | – | – | – | – | 6000 ± 1000 | 630 ± 20
